Measurements published in PMC3984256, “A PCNA-Derived Cell Permeable Peptide Selectively Inhibits Neuroblastoma Cell Growth” (PLoS ONE, 2014).
Where a SMILES comes first, the peptide text is derived from it. [ ]: non-standard residue; d: D form.

Columns and labels:
ãH2A.X foci = assay: γH2A.X foci immunofluorescence after γ-irradiation; format: cell-based; conditions: 30 µM peptide, 2 h pretreatment, 5 Gy; five fields; vs R9-srbPep
Procedure: To study DNA damage and repair, attached cells were pretreated with the peptides for 2 h and were then ã-irradiated (5 Gy). After irradiation, cells were cultured in the presence of the peptides for the indicated time. For analyzing ãH2A.X foci formation, cells were fixed in a solution of methanol and acetone (70%:30% v/v) for 15 min at −20°C. The slides were air-dried for storage and rehydrated in PBS prior to immunostaining. Cells were stained by a mouse monoclonal antibody specific to ãH2A.X (Millipore, Billerica, MA) followed by an Alexa Fluor 488 conjugated anti-mouse IgG antibody. For analyzing Rad51 foci formation, cells were fixed in PBS buffered 4% paraformaldehyde at room temperature for 15 min. After being washed twice by PBS, cells were permeabilized in PBS containing 0.5% triton for 15 min on ice. The fixed and permeabilized cells were stained with a rabbit polyclonal antibody raised against the human Rad51 (Santa Cruz) followed by an Alexa Fluor 488 conjugated anti-rabbit IgG antibody. Stained cells were visualized and imaged by a confocal microscope.

SK-N-BE(2)c cells = assay: Clonogenic assay; format: cell-based, human; conditions: 3 dishes averaged
Procedure: Three hundred fifty SK-N-BE(2)c cells were seeded onto a 60-mm tissue culture dish. Once attached overnight, cells were treated with or without cisplatin for 2 h. Cells were washed twice with growth medium and were cultured in fresh medium with or without R9-caPep for 3 weeks to allow colony formation. The medium was changed every 3 d. The colonies formed under each treatment conditions were counted after being stained with 0.5% crystal violet.

[1] = test system: SV40 T-antigen-dependent DNA replication, nuclear extracts from SK-N-BE(2)c cells; assay: SV40 T-antigen-dependent DNA replication assay in vitro; format: biochemical; conditions: nuclear extracts incubated with peptide 20 min; 32P dCTP incorporation, normalized to PBS, triplicates
Procedure: The assay was performed essentially as described, except that nuclear extracts from SK-N-BE(2)c cells were used in the assay.
Figure 3 Inhibition of DNA replication and induction of S-phase arrest and apoptosis by R9-caPep. a) SK-N-BE(2)c cells were pulsed in 10 µM of BrdU for 30 min after being pre-treated with R9-caPep or R9-srbPep for 7.5 h. The relative abundances of BrdU-positive cells in triplicates were averaged and graphed plus/minus standard deviations. b) Nuclear extracts from SK-N-BE(2)c cells were incubated with the indicated concentrations of R9-caPep (grey bars) or R9-srbPep (black bars) for 20 min. SV40 T-antigen was then added to the nuclear extracts along with premixed reaction buffer containing ^32P dCTP. […] The polymerized radioactivity was measured by a scintillation counter. The T-antigen-dependent incorporation of ^32P dCTP was calculated by subtracting T-antigen-independent radioactivity from the total radioactivity and was normalized to the T-antigen-dependent radioactivity in PBS-treated samples. Triplicates of normalized T-antigen-dependent radioactivity for each treatment condition were averaged and graphed plus/minus standard deviations. c) SK-N-BE(2)c and non-malignant 7SM0032 cells were fixed and stained with propidium iodide (PI) after being treated with the indicated concentrations of R9-caPeptide for 48 h. […] Cells were fixed and analyzed by a TUNEL assay. […]

CC[C@H](C)[C@H](NC(=O)CNC(=O)[C@H](CC(C)C)NC(=O)[C@H](CS)NC(=O)[C@H](CS)NC(=O)[C@@H](CCCNC(=N)N)NC(=O)[C@@H](CCCNC(=N)N)NC(=O)[C@@H](CCCNC(=N)N)NC(=O)[C@@H](CCCNC(=N)N)NC(=O)[C@@H](CCCNC(=N)N)NC(=O)[C@@H](CCCNC(=N)N)NC(=O)[C@@H](CCCNC(=N)N)NC(=O)[C@@H](CCCNC(=N)N)NC(=O)[C@H](N)CCCNC(=N)N)C(=O)N1CCC[C@H]1C(=O)N[C@@H](CCC(=O)O)C(=O)N[C@@H](CCC(N)=O)C(=O)N[C@@H](CCC(=O)O)C(=O)N[C@@H](Cc1ccc(O)cc1)C(=O)O [R9-caPep] (H-[dR][dR][dR][dR][dR][dR][dR][dR][dR]CCLGIPEQEY-OH; N-terminus and C-terminus assumed)
resolution of ãH2A.X foci (ãH2A.X foci): delayed the resolution of ãH2A.X foci induced by ã-irradiation | reduction of number of colonies, sequential cisplatin then R9-caPep (SK-N-BE(2)c cells; 1 µM cisplatin 2 h, then 20 µM R9-caPep 3 weeks): about 80% | reduction of number of colonies, single agent (SK-N-BE(2)c cells; R9-caPep alone 20 µM 3 weeks, or cisplatin alone 1 µM 2 h): less than 30% | SV40 T-antigen-dependent DNA replication [1]: inhibited SV40 T-antigen-dependent DNA replication in vitro
